Values of other authors in patent US9962390B2, “Mosapride sustained-release formulation providing pharmacological and clinical effects with once-daily administration” (Korea United Pharm. Inc., priority 2013, dated 2018).
Where a name gives a salt, the structure may show the parent alone.

What was measured:
[1] = not given; remark: listed apart in the source

water solubility compared with Mosapride	concentration in eyeballs relative to blood ([1]; eyeballs)	concentration relative to that in blood plasma ([1]; liver, small intestine, kidney, and adrenal glands)	absorbed in the digestive tract ([1]; orally administered)	SMILES
higher water solubility	–	–	–	CCOc1cc(N)c(Cl)cc1C(=O)NCC1CN(Cc2ccc(F)cc2)CCO1 (stereo not shown) [Mosapride citrate]
–	about half the concentration in blood	at least 10 times	more than 93%	CCOc1cc(N)c(Cl)cc1C(=O)NCC1CN(Cc2ccc(F)cc2)CCO1 (stereo not shown) [Mosapride, 4-amino-5-chloro-2-ethoxy-N-{[4-(4-fluorobenzyl)-2-morpholinyl]methyl}benzamide]
